Data as given in patent publication US12521378B2, “Administration of R-beta-hydroxybutyrate salt blend and related compounds in humans” (priority 2016, dated 2026).

How the values were obtained:
[1] = 2 km time test on wingate cycle ergometer; assay type: in vivo, human; details: 10 g, 30 minutes before 2 km time test
Method: Five healthy individual were given a 2 km time test (e.g., 4 cycles of low to severely intense exercise on a […] ergometer) 30 minutes after administration of a placebo, 10 g of R-beta-hydroxybutyrate, and 10 g of […]. FIG. 12 illustrates the average blood ketone levels and FIG. 13 illustrates the percentage improvement over the administration of the placebo. […] FIG. 14 illustrates the perceived exertion experienced by the individuals. […] Thus, the R-beta-hydroxybutyrate has an unexpectedly impact on ketone levels and performance.

[2] = blood ketone levels after R-, L- or D,L-beta-hydroxybutyrate; assay type: in vivo, human; details: 5 g or 10 mg (so in the source)
Method: Individuals were 5 g or 10 mg of R-beta-hydroxybutyrate, L-beta-hydroxybutyrate, or D,L-beta-hydroxybutyrate and blood ketone levels were measured.

[3] = Respiratory exchange ratio (RER); assay type: in vivo, human; details: 10 subjects
Method: 10 subjects were administered approximately 5 g or 10 g of D,L-beta-hydroxybutyrate or R-beta-hydroxybutyrate, and Respiratory exchange ratio was examined (RER, a ratio of carbon dioxide/oxygen).

[4] = Bench Press strength and power testing at 50% of 1-RM; assay type: in vivo, human; details: 5 g; for increase in minimum power: averages of power measurements
Method: FIGS. 19A-19B illustrate the results of the testing. […] Thus, R-beta-hydroxybutyrate experienced a greater than expected impact when compared with D,L-beta-hydroxybutyrate. The individuals were also tested for power. FIG. 19C illustrates the results of the testing (e.g., averages of power measurements). As illustrated, R-beta-hydroxybutyrate administration increased minimum power by 26%, while the DL-beta-hydroxybutyrate administration raised power by 2%.

[5] = mental acuity testing (tracking, saccades, processing speed, response accuracy); assay type: in vivo, human
Method: Processing speed testing was performed (e.g, processing speed is considered a true measure of cognitive performance). […] Response accuracy was also tested.

[6] = lifespan of rats on low-fat standard American diet; assay type: in vivo, Fischer 344 rats; details: supplemented versus standard diet at 20 months
Text: Sixteen rats (Fischer 344 rats) were studied for the effect of R-beta-hydroxybutyrate on lifespan. A first grouping of eight rats were fed an equivalent to a low-fat standard American diet and a second grouping of eight rats were fed the same equivalent to a low-fat standard American diet and supplemented with R-beta-hydroxybutyrate salt (e.g., sodium R-beta-hydroxybutyrate). The second grouping of rats were supplemented with the R-beta-hydroxybutyrate salt at middle age. FIG. 7 illustrates the average lifespans of the groupings of rats. […] Since the rat study was performed as an approximation of impact in humans, the addition of R-beta-hydroxybutyrate to a standard American low-fat diet may increase lifespan.

[7] = motor function testing by eye movements in an individual with Parkinson's disease; assay type: in vivo, human; details: approximately 10 g; approximately 30 minutes after administration; one Parkinson's patient, pre vs post
Text: The testing included a right-eye visual and motor performance apparatus to track motor function through eye movements. FIG. 8 illustrates chart illustrating the results of the motor skill testing following an example implementation of administration of R-beta-hydroxybutyrate. FIG. 8 illustrates average results for a similar non-Parkinson's population, the patient pre-administration of R-beta-hydroxybutyrate, and the patient post-administration of R-beta-hydroxybutyrate.

[8] = Xray absorptiometry, fat mass and lean mass; assay type: in vivo, human; details: 5 g twice daily for 3 months; one individual
Method: Xray absorptiometry was performed to determine the impact of the administration of R-beta-hydroxybutyrate on fat loss. […] As illustrated, the individual experienced a greater than approximately 10% decrease in fat mass. […] Thus, the R-beta-hydroxybutyrate may cause weight loss through fat loss rather than lean mass (e.g., muscle mass).

Lipoprotien lipase (LPL) = experiment: average Lipoprotien lipase (LPL) in rats; assay type: in vivo; details: standard diet plus salt equivalent to 5 g or 10 g; 10 rats per grouping
Text: FIG. 11 illustrates the average Lipoprotien lipase (LPL) in the rats. Since LPL is needed to transport fat into adipose tissue, lowering LPL levels would inhibit fat storage and encourage usage of fat storages.

C-reactive protein = C-reactive protein levels after administration; assay type: in vivo, human; details: one individual with high C-reactive protein; 62.5 before administration
Method: (§1) An individual with high C-reactive protein, which is associated with inflammation, was administered R-beta-hydroxybutyrate. […] In addition, fasting glucose was decreased (e.g., 104 to 95).

[9] = fasting glucose after administration; assay type: in vivo, human; details: same individual; 104 before administration
Method: as §1

superoxide dismutase 2 = superoxide dismutase 2 levels in the brain; assay type: in vivo; details: e.g. 10 g; standard or ketogenic diet
Method: Individuals were given a standard diet or ketogenic diet. Some individuals were administered R-beta-hydroxybutyrate (e.g., 10 g).

[10] = perceived hunger, satiety and perceived energy; assay type: in vivo, human
Method: FIGS. 18A-18C illustrate the results of the testing. FIG. 18A illustrates perceived hunger, FIG. 18B illustrates perceived satiety, and FIG. 18C illustrates perceived energy. […] R-beta-hydroxybutyrate sustained elevated perceived energy levels from 0 minutes at 60, 90, and 120 minutes post consumption, as opposed to D,L-beta-hydroxybutyrate.

[11] = glucose challenge test (75 g glucose), blood glucose levels; assay type: in vivo, human
Method: Five subjects were subject to three separate glucose challenge tests (75 g glucose) after administration of 500 mg berberine (BB), 250 mg of dihydroberberine (DHBB) or 500 dihydroberberine. Blood was drawn prior to administration and after 30, 60, 90, 120, and 180 minutes. FIG. 1 illustrates the results of the administration protocol. FIG. 1 illustrates the average blood glucose level of the 5 subjects at each of the times.
As in Example 1, five subjects were subject to three separate glucose challenge tests (75 g glucose) after administration of 500 mg berberine (BB), 250 mg of dihydroberberine (DHBB) or 500 dihydroberberine. FIG. 2 illustrates a ranking which compositions caused the lowest blood glucose levels during a oral glucose challenge. […] For example, in some individuals (e.g., individuals with moderate glucose tolerance) may achieve better blood glucose control when administered a lower dosage of DHBB.
Five subjects were subject to three separate glucose challenge tests (75 g glucose) approximately 25 minutes after administration of 500 mg berberine (BB), 250 mg of dihydroberberine (DHBB) or 500 dihydroberberine. Blood was drawn prior to administration and after 30, 60, 90, 120, and 180 minutes and tested for glucose levels. FIG. 4 illustrates the results of the administration protocol.

[12] = glucose challenge test, blood ketone levels; assay type: in vivo, human; details: 250 mg DHBB alone or with 5 mg sodium beta-hydroxybutyrate; one subject; 120 minutes
Method: A subject was subject to a glucose challenge test (75 g glucose) after administration of 250 mg dihydroberberine (DHBB) and a glucose challenge test after administration of 250 mg dihydroberberine (DHBB) along with 5 mg of beta-hydroxybutyrate (e.g., 5 mg sodium beta-hydroxybutyrate).

[13] = blood ketone level over time after administration of sodium beta-hydroxybutyrate; assay type: in vivo, human; details: 5 mg of sodium R-beta-hydroxybutyrate (so in the source); average of 4 subjects; 30, 60, 90, 120 and 180 minutes
[14] = before vs after, 5 resistance trained males, 50% of 1-RM

## CC(O)CC(=O)O (racemic) [D,L-beta-hydroxybutyrate, reference compound]
[1]
  perceived exertion: did not feel an impact in perceived exertion
[2]
  blood ketone levels: does not lower blood ketone levels to the same extent as R-beta-hydroxybutyrate
[3]; D,L-beta-hydroxybutyrate, more than 5 g
  increase of RER: 17%
[4]
  increase in minimum power: 2%
[4]; [14]
  decrease in Bench Press test result: 2%
[5]; DL-beta-hydroxybutyrate
  increase of response accuracy: 12.7%
[5]; e.g. 5 g
  Horizontal Saccades, performance improvement: 3.2%
  improvement of processing speed: approximately 18%
[5]; e.g. 10 g
  Circular Tracking, improvement in tracking accuracy: no improvement
  Vertical Tracking, improvement of performance: 4.6%

## C[C@H](O)CC(=O)O [L-beta-hydroxybutyrate]
[2]
  blood ketone levels: does not decrease blood ketones

## C[C@@H](O)CC(=O)O [R-beta-hydroxybutyrate, (R)-3-Hydroxybutyric acid]
[6]
  rats with increased lifespan: ≥ 38.5%
[7]
  motor function: increased motor function
[8]
  decrease in fat mass: > 10%
  lean mass: maintaining lean mass
Lipoprotien lipase (LPL)
  LPL levels: decreases LPL levels
C-reactive protein
  C-reactive protein levels after administration: 4.4
[9]
  fasting glucose after administration: 95
[1]
  perceived exertion: perceived exertion improvement
[1]; five healthy individuals
  blood ketone levels compared with D,L-beta-hydroxybutyrate: increased more than double
[1]; improvement over placebo
  performance (improvement in time) compared with D,L-beta-hydroxybutyrate: increased by more than double
Superoxide dismutase 2
  superoxide dismutase 2 levels (SOD) in the brain: numerically increase superoxide dismutase 2 levels
[3]; 10 g
  reduction of RER relative to D,L-beta-hydroxybutyrate: approximately 3 ×
[10]; 0 to 30 minutes post consumption, 5 g-10 g
  improvement of perceived energy relative to D,L-beta-hydroxybutyrate: double that of D,L-beta-hydroxybutyrate
[10]; 5 g-10 g
  raise of perceived energy: 18%
[10]; 30 minutes post consumption, relative to baseline, 5 g-10 g
  improvement of satiety levels relative to DL-beta-hydroxybutyrate: 2.3 ×
[10]; in vivo
  raise of perceived energy relative to peak increase with DL-beta-hydroxybutyrate: more than 2 times
[10]; post ingestion
  time for which raised perceived energy was sustained: 2 h
[4]
  increase in minimum power: 26%
[4]; [14]
  increase in Bench Press test result: 11%
[5]; e.g. 5 g
  Horizontal Saccades, improvement relative to D,L-beta-hydroxybutyrate: 4 times
  Horizontal Saccades, performance improvement: 13.8%
  improvement of processing speed: 27.7%
  increase of response accuracy: 37 percentage points
[5]; e.g. 10 g
  Circular Tracking, improvement in tracking accuracy: approximately 3%
  Vertical Tracking, improvement of performance: 13.8%
  Vertical Tracking, improvement relative to D,L-beta-hydroxybutyrate: approximately 3 times

## COc1ccc2c(c1OC)CN1CCc3cc4c(cc3C1=C2)OCO4 [dihydroberberine]
[11]; 250 mg DHBB vs 500 mg DHBB, 5 subjects
  control of blood glucose levels during oral glucose challenge (ranking): control blood glucose levels better than even 500 mg of DHBB
[11]; 250 mg or 500 dihydroberberine vs 500 mg berberine, 5 subjects
  blood glucose during oral glucose challenge versus berberine: lower blood glucose than administration of berberine in most individuals
[11]; 75 g glucose challenge, 250 mg or 500 dihydroberberine vs 500 mg berberine, average of 5 subjects, 30-180 minutes
  fluctuations in blood glucose level: less fluctuations in blood glucose level than berberine
[11]; 75 g glucose challenge, dihydroberberine vs 500 mg berberine, 5 subjects
  blood glucose levels relative to fasting blood glucose: keep blood glucose levels closer to fasting blood glucose than berberine
[11]; individuals with moderate baseline glucose levels, glucose challenge about 25 minutes after administration, vs 500 mg berberine
  moderation of blood glucose levels: moderates blood glucose levels better than even double the quantity of berberine
[12]
  blood ketone levels after glucose challenge: unexpectedly increased even 120 minutes after the glucose challenge

## C[C@@H](O)CC(=O)[O-].[Na+] [sodium R-beta-hydroxybutyrate]
[13]
  blood ketone level compared with 10 g of D,L-beta-hydroxybutyrate: approximately the same blood ketone level
